Results reported in PMC12284513, “Unique structural features define the decarboxylation activity of a CYP152 fatty acid decarboxylase from Lacicoccus alkaliphilus” (The Journal of Biological Chemistry, 2025).

What was measured:
OleTJE L176I = experiment: Fatty acid bioconversion with H2O2 as co-substrate (alkene by GC-MS, hydroxy products by HPLC-MS); type: biochemical, Jeotgalicoccus sp. 8456; conditions: for Decarboxylation activity of OleTJE L176I compared to that of OleTJE wild type: 200 μM substrate, 400 μM H2O2
Protocol: A reaction was typically quenched by adding 2-fold reaction volume of ethyl acetate which contained 30 μM of tetradecane as an internal standard. The reaction mixtures were vortexed for 1 min and then centrifuged at 12,000 rpm, 4 °C for 10 min to separate an organic and an aqueous phase. The organic phase was injected into an Agilent gas chromatography system (GC-MS) (Agilent 7890B equipped with Agilent 5977B MSD) equipped with a HP5-MS column (30 m × 0.25 mm × […]) (Agilent), and helium was used as a carrier gas. The oven conditions for C10FA and 1-nonene (C9 alkene) were ramped up from 60 to 240 °C with a rate of 19 ° C min^−1 and held at 240 °C for 1 min. […] For C18FA and 1-heptadecene (C17 alkene), the oven was ramped up from 60 to 250 °C with a rate of 22 °C min^−1 and hold at 250 °C for 4 min. For C20FA and 1-nonadecene (C19 alkene), the oven was ramped up from 100 to 250 °C with a rate of 23 °C min^−1 and held at 250 °C for 6 min. The response of target compounds was normalized with signals of the internal standard. The concentration of each compound was calculated based on a standard calibration curve.
For analyzing hydroxylated products of fatty acids, the reactions were quenched by adding an equal volume of acetonitrile, centrifuged, and filtrated. The analytes (10 μl) were injected into a liquid chromatography coupled with diode array and single quadrupole mass spectroscopy detection (LC-DAD/MS) (Agilent 1290 Infinity II LC System equipped with DAD, Single Quadrupole Mass Spectrometers system). A Zorbax eclipse plus C18 column (5 μm, 4.6 × 250 mm) (Agilent Technology) was used for separation. The mobile phase system A was water with 0.1% (v/v) formic acid, and system B was acetonitrile with 0.1% (v/v) formic acid.
All fatty acids were prepared in absolute EtOH at 20 mM as stock solutions. The reaction was carried out in 50 mM NaH2PO4 buffer with 300 mM NaCl, pH 7.5, with 2.5 or 10% (v/v) of EtOH, 200 μM of a substrate, and 400 μM of H2O2. The reactions were performed at 25 °C for 1 h, and then the alkene product was measured using GC-MS after the reactions were quenched and extracted with two-fold volume of ethyl acetate.
Site-directed mutagenesis of I178L of OleTLA and […] of OleTJE was done with overlaping PCR that used OleTLA or OleTJE plasmids as templates (Table S4). The PCR products were treated with DpnI in cut smart buffer at 37 °C for 16 h, transformed into E. coli XL−1 blue competent cells and grown at 37 °C on LB agar containing 50 μg/ml ampicillin. The plasmids of selected colonies were extracted for sequence verification. The plasmid containing the correct sequence was transformed into E. coli BL21 (DE3) for enzyme expression. The expression and purification methods of variants were the same as those of wild-type OleTLA and OleTJE.

[1] = system: Escherichia coli BL21 (DE3) cells co-transformed with pGro7, FdR/FdX system, and OleTLA or OleTJE; experiment: In vivo bioconversion of C16FA with the FdR/FdX redox partner system; type: cell-based; conditions: 128.22 mg/L of C16FA added, cells overexpressing OleTLA and OleTJE
Protocol: The pRSFDuet−1 vector containing FdR/FdX and OleTLA or OleTJE was transformed into competent E. coli BL21 (DE3) containing a pGro7 plasmid. The transformed cells were incubated in LB broth at 37 °C, 220 rpm for 1.5 h, spread on LB agar with ampicillin (50 μg/ml), kanamycin (34 μg/ml), and chloramphenicol (20 μg/ml), and incubated at 37 °C for overnight. A single colony was inoculated into a starter culture in an auto-induction medium with appropriate antibiotics and 1% (w/v) of glucose. The culture was then incubated at 37 °C, 220 rpm overnight. Then, 1% (v/v) of the starter was inoculated into the auto-induction medium in the presence of ammonium iron (III) citrate (20 ug/ml), L-arabinose (2 mg/ml), ampicillin (50 μg/ml), kanamycin (34 μg/ml), and chloramphenicol (20 μg/ml), hemin (0.05 mM) and δ-ALA (0.5 mM) and then grown at 37 °C, 220 rpm until OD600 reached about 0.8 to 1.0. […] At a specific time point, the culture medium was sampled and extracted by adding two-fold ethyl acetate with tetradecane as an internal standard. The mixture was vortexed and centrifuged at 4 °C for 10 min. The organic phase was collected and injected into the GC-MS system.

[2] = Thermofluor assay of enzyme melting temperature; type: physicochemical; conditions: reductase enzymes of the redox partner systems (Fig. S16)
Protocol: The reactions containing 10 μM of enzyme, 25X of SYPRO Orange Protein Gel Stain solution in 25 μl of a storage buffer were carried out in a CFX96 Real-Time (Bio-Red) Thermal Cycle. The temperature of the experiments was raised from 30 to 80 °C at a continuous rate of 1 °C min^−1. The temperature at which half of the total amount of protein transitioned into an unfolded form is designated as the melting temperature.

Question: With `CCCCCCCCCC(=O)O` [C10FA, decanoic acid] as the molecule, how does the “Decarboxylation activity of OleTJE L176I compared to that of OleTJE wild type” value (OleTJE L176I) read?
Answer: less than 1%

Question: For `CCCCCCCCCCCC(=O)O` [C12FA, dodecanoic acid], which “Decarboxylation activity of OleTJE L176I compared to that of OleTJE wild type” value (OleTJE L176I) is on record?
Answer: less than 1%

Question: Which C15 alkene produced ([1]; after 24 h) does the source give for `C=CCCCCCCCCCCCCC` [C15 alkene, 1-pentadecene] here?
Answer: 0.42 mg/L

Question: And the C15 alkene produced ([1]; after 48 h)?
Answer: around 1.26 mg/L

Question: With `CCCCCCCCCCCCCCCCCC(=O)O` [C18FA, octadecanoic acid] as the molecule, how does the “Decarboxylation activity of OleTJE L176I compared to that of OleTJE wild type” value (OleTJE L176I) read?
Answer: less than 5%

Question: With `CCCCCCCCCCCCCCCCCCCC(=O)O` [C20FA, icosanoic acid] as the molecule, how does the “Decarboxylation activity of OleTJE L176I compared to that of the wild-type enzyme” value (OleTJE L176I; 2.5% (v/v) EtOH) read?
Answer: 37%

Question: And the “Decarboxylation activity of OleTJE L176I compared to that of the wild-type enzyme” value (OleTJE L176I; 10% (v/v) EtOH)?
Answer: 23%

B1: FdR: ferredoxin reductase, redox partner, gene from Escherichia coli K-12 (protein, UniProt P28861 2-248, looked up)
Flavodoxin/ferredoxin--NADP …: ADWVTGKVTKVQNWTDALFSLTVHAPVLPFTAGQFTKLGLEIDGERVQRAYSYVNSPDNPDLEFYLVTVPDGKLSPRLAALKPGDEVQVVSEAAGFFVLDEVPHCETLWMLATGTAIGPYLSILQLGKDLDRFKNLVLVHAARYAADLSYLPLMQELEKRYEGKLRIQTVVSRETAAGSLTGRIPALIESGELESTIGLPMNKETSHVMLCGNPQMVRDTQQLLKETRQMTKHLRRRPGHMTAEHYW
Question: For B1, which Tm [2] is on record?
Answer: 60 °C

B2: CamA: putidaredoxin reductase, known redox partner, from Pseudomonas putida (protein, UniProt P16640 1-422, looked up)
Putidaredoxin reductase CamA: MNANDNVVIVGTGLAGVEVAFGLRASGWEGNIRLVGDATVIPHHLPPLSKAYLAGKATAESLYLRTPDAYAAQNIQLLGGTQVTAINRDRQQVILSDGRALDYDRLVLATGGRPRPLPVASGAVGKANNFRYLRTLEDAECIRRQLIADNRLVVIGGGYIGLEVAATAIKANMHVTLLDTAARVLERVTAPPVSAFYEHLHREAGVDIRTGTQVCGFEMSTDQQKVTAVLCEDGTRLPADLVIAGIGLIPNCELASAAGLQVDNGIVINEHMQTSDPLIMAVGDCARFHSQLYDRWVRIESVPNALEQARKIAAILCGKVPRDEAAPWFWSDQYEIGLKMVGLSEGYDRIIVRGSLAQPDFSVFYLQGDRVLAVDTVNRPVEFNQSKQIITDRLPVEPNLLGDESVPLKEIIAAAKAELSSA
Question: Which Tm [2] does the source give for B2 here?
Answer: 50 °C
